Measured values: ChEMBL document CHEMBL5036377, “Improved Metabolically Stable 5-HT Receptor Modulators and the Development of New Antidepressants” (ACS Med Chem Lett, 2022)

Experiments:
[1] = Stability in rat brain homogenate assessed as compound remaining measured after 120 mins; format: ADME, tissue-based; conditions: read-out: Stability
[2] = Stability in human liver mitochondria assessed as compound remaining in presence of MAO-A and MAO-B measured after 60 mins; format: ADME; conditions: read-out: Stability
[3] = Stability in rat brain homogenate assessed as half life; format: ADME, tissue-based

SMILES	remaining at 2 h [1]	remaining at 1 h [2]	half-life [3]
COc1ccc2[nH]cc(CCN3CCC3)c2c1	98%	106%	> 4.82 h
CN(C)CCc1c[nH]c2ccccc12	0%	8.9%	0.085 h
c1ccc2c(CCN3CCC3)c[nH]c2c1	91.9%	85.2%	> 4.82 h
Oc1cccc2[nH]cc(CCN3CCC3)c12	56.8%	88.2%	2.91 h
COc1ccc2[nH]cc(CCN(C)C)c2c1 [MEBUFOTENIN]	0.3%	47.1%	0.24 h
CN(C)CCc1c[nH]c2cccc(O)c12 [PSILOCIN]	46.1%	112%	1.91 h
